Data published in ChEMBL document CHEMBL1157550, “Incorporation of fluorinated phenylalanine generates highly specific inhibitor of proteasome's chymotrypsin-like sites” (J Med Chem, 2010).
Calls of active or inactive are those of the source. The calls are words filed in the database; no cut-off is given here.

What was measured:
Type in all cases: cell-free
[1] = target: T1, Proteasome Macropain subunit MB1 (Homo sapiens) (UniProt P28074); assay: Displacement of fluorescent labeled MV151 from 26S proteasome beta 5 in human HEK293 cell lysate assessed as residual activity at 100 uM after 1 hr by SDS-PAGE
T1 sequence (whole entry): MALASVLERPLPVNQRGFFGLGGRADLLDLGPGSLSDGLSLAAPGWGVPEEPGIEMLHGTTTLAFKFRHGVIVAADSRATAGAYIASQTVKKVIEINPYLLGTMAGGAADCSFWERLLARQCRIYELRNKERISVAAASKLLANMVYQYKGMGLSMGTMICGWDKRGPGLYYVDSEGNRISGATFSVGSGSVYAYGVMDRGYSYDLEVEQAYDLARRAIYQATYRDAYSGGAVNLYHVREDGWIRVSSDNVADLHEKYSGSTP

[2] = target: T2, Proteasome component C5 (Homo sapiens) (UniProt P20618); assay: Displacement of fluorescent labeled MV151 from 26S proteasome beta 1 in human HEK293 cell lysate assessed as residual activity at 1 uM after 1 hr by SDS-PAGE
T2 sequence (whole entry): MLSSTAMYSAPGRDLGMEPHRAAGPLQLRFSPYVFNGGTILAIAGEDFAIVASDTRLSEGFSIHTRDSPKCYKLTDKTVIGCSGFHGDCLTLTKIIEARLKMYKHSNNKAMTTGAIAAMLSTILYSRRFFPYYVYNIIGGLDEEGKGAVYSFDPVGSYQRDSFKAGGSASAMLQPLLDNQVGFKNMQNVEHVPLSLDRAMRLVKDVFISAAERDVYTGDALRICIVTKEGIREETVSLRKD

[3] = target: T2, Proteasome component C5 (Homo sapiens); assay: Displacement of fluorescent labeled MV151 from 26S proteasome beta 1 in human HEK293 cell lysate assessed as residual activity at 100 uM after 1 hr by SDS-PAGE
[4] = target: Proteasome Macropain subunit (Homo sapiens) (UniProt P49721); assay: Displacement of fluorescent labeled MV151 from 26S proteasome beta 2 in human HEK293 cell lysate assessed as residual activity at 1 uM after 1 hr by SDS-PAGE
[5] = target: Proteasome Macropain subunit (Homo sapiens) (UniProt P49721); assay: Displacement of fluorescent labeled MV151 from 26S proteasome beta 2 in human HEK293 cell lysate assessed as residual activity at 100 uM after 1 hr by SDS-PAGE
[6] = target: T1, Proteasome Macropain subunit MB1 (Homo sapiens); assay: Displacement of fluorescent labeled MV151 from 26S proteasome beta 5 in human HEK293 cell lysate assessed as residual activity at 1 uM after 1 hr by SDS-PAGE
[7] = target: T2, Proteasome component C5 (Homo sapiens); assay: Inhibition of 26S proteasome beta 1 in human HEK293 cell lysate assessed as residual activity at 13.5 uM after 1 hr
[8] = target: T2, Proteasome component C5 (Homo sapiens); assay: (§1) Inhibition of 26S proteasome beta 1 in human HEK293 cell lysate assessed as residual activity at […] after 1 hr
[9] = target: T2, Proteasome component C5 (Homo sapiens); assay: Inhibition of 26S proteasome beta 1 in human HEK293 cell lysate assessed as residual activity at 1.5 uM after 1 hr
[10] = target: T2, Proteasome component C5 (Homo sapiens); assay: Inhibition of 26S proteasome beta 1 in human HEK293 cell lysate assessed as residual activity at 0.5 uM after 1 hr
[11] = target: T2, Proteasome component C5 (Homo sapiens); assay: Inhibition of 26S proteasome beta 1 in human HEK293 cell lysate assessed as residual activity at 0.167 uM after 1 hr
[12] = target: T2, Proteasome component C5 (Homo sapiens); assay: as §1; remark: listed apart in the source
[13] = target: T2, Proteasome component C5 (Homo sapiens); assay: Inhibition of 26S proteasome beta 1 in human HEK293 cell lysate assessed as residual activity at 0.019 uM after 1 hr
[14] = target: T2, Proteasome component C5 (Homo sapiens); assay: Inhibition of 26S proteasome beta 1 in human HEK293 cell lysate assessed as residual activity at 0.002 uM after 1 hr
[15] = target: T2, Proteasome component C5 (Homo sapiens); assay: Inhibition of 26S proteasome beta 1 in human HEK293 cell lysate assessed as residual activity at 0.001 uM after 1 hr
[16] = target: Proteasome Macropain subunit (Homo sapiens) (UniProt P49721); assay: (§2) Inhibition of 26S proteasome beta 2 in human HEK293 cell lysate assessed as residual activity at […] after 1 hr
[17] = target: Proteasome Macropain subunit (Homo sapiens) (UniProt P49721); assay: Inhibition of 26S proteasome beta 2 in human HEK293 cell lysate assessed as residual activity at 1.5 uM after 1 hr
[18] = target: Proteasome Macropain subunit (Homo sapiens) (UniProt P49721); assay: Inhibition of 26S proteasome beta 2 in human HEK293 cell lysate assessed as residual activity at 0.5 uM after 1 hr
[19] = target: Proteasome Macropain subunit (Homo sapiens) (UniProt P49721); assay: Inhibition of 26S proteasome beta 2 in human HEK293 cell lysate assessed as residual activity at 0.167 uM after 1 hr
[20] = target: Proteasome Macropain subunit (Homo sapiens) (UniProt P49721); assay: as §2; remark: listed apart in the source
[21] = target: Proteasome Macropain subunit (Homo sapiens) (UniProt P49721); assay: Inhibition of 26S proteasome beta 2 in human HEK293 cell lysate assessed as residual activity at 0.019 uM after 1 hr
[22] = target: Proteasome Macropain subunit (Homo sapiens) (UniProt P49721); assay: Inhibition of 26S proteasome beta 2 in human HEK293 cell lysate assessed as residual activity at 0.006 uM after 1 hr
[23] = target: Proteasome Macropain subunit (Homo sapiens) (UniProt P49721); assay: Inhibition of 26S proteasome beta 2 in human HEK293 cell lysate assessed as residual activity at 0.002 uM after 1 hr
[24] = target: Proteasome Macropain subunit (Homo sapiens) (UniProt P49721); assay: Inhibition of 26S proteasome beta 2 in human HEK293 cell lysate assessed as residual activity at 0.001 uM after 1 hr
[25] = target: T2, Proteasome component C5 (Homo sapiens); assay: Inhibition of 26S proteasome beta 1 in human HEK293 cell lysate assessed as residual activity at 0.006 uM after 1 hr
[26] = target: Proteasome Macropain subunit (Homo sapiens) (UniProt P49721); assay: Inhibition of 26S proteasome beta 2 in human HEK293 cell lysate assessed as residual activity at 13.5 uM after 1 hr
[27] = target: T2, Proteasome component C5 (Homo sapiens); assay: Displacement of fluorescent labeled MV151 from 26S proteasome beta 1 in human HEK293 cell lysate assessed as disappearance of band at 0.1 to 1 uM after 1 hr by SDS-PAGE
[28] = target: T1, Proteasome Macropain subunit MB1 (Homo sapiens); assay: Displacement of fluorescent labeled MV151 from 26S proteasome beta 5 in human HEK293 cell lysate assessed as disappearance of band at 0.1 to 1 uM after 1 hr by SDS-PAGE

Proteasome Macropain subunit (Homo sapiens), sequence (P49721 whole entry): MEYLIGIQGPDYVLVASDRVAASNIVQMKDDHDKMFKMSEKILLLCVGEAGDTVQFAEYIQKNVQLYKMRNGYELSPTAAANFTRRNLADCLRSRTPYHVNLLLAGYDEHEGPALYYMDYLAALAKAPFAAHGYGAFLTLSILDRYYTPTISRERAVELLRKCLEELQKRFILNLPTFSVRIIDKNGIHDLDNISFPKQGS

For `CC(C)C[C@H](NC(=O)[C@H](Cc1c(F)c(F)c(F)c(F)c1F)NC(=O)[C@H](Cc1c(F)c(F)c(F)c(F)c1F)NC(=O)[C@H](Cc1ccccc1)N=[N+]=[N-])C(=O)[C@@]1(C)CO1`, which Activity [1] is on record?
Its Activity is 7.4%.

What about the Activity [2] of the same compound?
The Activity was 148%.

And the Activity [3]?
Its Activity is 115%.

What about the Activity [4] of the same compound?
Its Activity is 20.4%.

And the Activity [5]?
The Activity was 43.2%.

And the Activity [6]?
Its Activity is 94.9%.

How did the Activity [7] turn out when `CC(C)C[C@H](NC(=O)[C@H](Cc1c(F)c(F)c(F)c(F)c1F)NC(=O)[C@H](Cc1ccccc1)NC(=O)[C@H](Cc1ccccc1)N=[N+]=[N-])C(=O)[C@@]1(C)CO1` was run?
The Activity was 71.2%.

And the Activity [8]?
Its Activity is 77.6%.

And the Activity [9]?
The Activity was 90.1%.

And the Activity [10]?
The Activity was 98.3%.

And the Activity [11]?
The Activity was 99.5%.

And the Activity [12]?
Its Activity is 105%.

And the Activity [13]?
The Activity was 104%.

What about the Activity [14] of the same compound?
Its Activity is 106%.

And the Activity [15]?
The Activity was 100%.

And the Activity [16]?
Its Activity is 71%.

And the Activity [17]?
The Activity was 84.2%.

What about the Activity [18] of the same compound?
Its Activity is 95.6%.

And the Activity [19]?
Its Activity is 112%.

And the Activity [20]?
Its Activity is 120%.

What about the Activity [21] of the same compound?
Its Activity is 109%.

And the Activity [22]?
Its Activity is 90.7%.

And the Activity [23]?
The Activity was 106%.

And the Activity [24]?
The Activity was 105%.

And the Activity [25]?
Its Activity is 77.3%.

And the Activity [26]?
The Activity was 54.1%.

And the Activity [2]?
Its Activity is 248%.

And the Activity [3]?
Its Activity is 15.4%.

What about the Activity [5] of the same compound?
Its Activity is 116%.

What about the Activity [6] of the same compound?
The Activity was 11.6%.

With `CC(C)C[C@H](NC(=O)[C@H](Cc1c(F)c(F)c(F)c(F)c1F)NC(=O)c1cnccn1)B1OC2C[C@@H]3C[C@@H](C3(C)C)[C@]2(C)O1` (stereo partly drawn) as the compound, how does the Activity [7] read?
The Activity was 1.3%.

What about the Activity [8] of the same compound?
The Activity was 3.1%.

What about the Activity [9] of the same compound?
The Activity was 12%.

And the Activity [10]?
The Activity was 40.4%.

What about the Activity [11] of the same compound?
The Activity was 68.7%.

What about the Activity [12] of the same compound?
The Activity was 92.1%.

And the Activity [13]?
Its Activity is 99.5%.

What about the Activity [14] of the same compound?
The Activity was 96.1%.

And the Activity [15]?
The Activity was 110%.

And the Activity [16]?
The Activity was 118%.

And the Activity [17]?
The Activity was 135%.

What about the Activity [18] of the same compound?
Its Activity is 118%.

What about the Activity [19] of the same compound?
The Activity was 121%.

And the Activity [20]?
The Activity was 118%.

What about the Activity [21] of the same compound?
Its Activity is 102%.

And the Activity [22]?
Its Activity is 104%.

What about the Activity [23] of the same compound?
Its Activity is 99%.

And the Activity [24]?
The Activity was 110%.

What about the Activity [25] of the same compound?
Its Activity is 97.5%.

What about the Activity [26] of the same compound?
Its Activity is 110%.

What about the Activity [27] of the same compound?
The Activity was “Active”.

What about the Activity [28] of the same compound?
The Activity was “Active”.

How did the Activity [1] turn out when `CC(C)C[C@H](NC(=O)[C@H](Cc1cc(C(F)(F)F)cc(C(F)(F)F)c1)NC(=O)[C@H](Cc1cc(C(F)(F)F)cc(C(F)(F)F)c1)NC(=O)[C@H](Cc1ccccc1)N=[N+]=[N-])C(=O)[C@@]1(C)CO1` was run?
Its Activity is 31%.

What about the Activity [2] of the same compound?
Its Activity is 192%.

What about the Activity [3] of the same compound?
Its Activity is 100%.

What about the Activity [4] of the same compound?
Its Activity is 48%.

What about the Activity [5] of the same compound?
Its Activity is 149%.

What about the Activity [6] of the same compound?
Its Activity is 79%.
